Results on 19 compounds are retold here after patent US20260159520A1, “HETEROBIFUNCTIONAL COMPOUNDS AND METHODS OF TREATING DISEASE” (Halda Therapeutics OpCo, Inc., priority 2022, published 2026).

pKd: −log10 of the molar value.

In general, pKd refers to the Kd on a negative log10 scale, so that one unit is a factor of ten.

For assay [1], the target named is T1, CDK9 (Homo sapiens, UniProt P50750).
T1 construct: made in house; host or cells: E. coli BL21-derived host (T7 phage) or HEK-293 ('BEK-293' [sic])
The assay can be described thus: KdELECT binding assay, CDK9. The note with it: CDK9, Table 7. How it is done:
(§1) Compounds were tested using a KdELECT. Kinase-tagged T7 phage strains were prepared in an E. coli host derived from the BL21 strain. E. coli were grown to log-phase and infected with T7 phage and incubated with shaking at 32° C. until lysis. The lysates were centrifuged and filtered to remove cell debris. The remaining kinases were produced in BEK-293 cells and subsequently tagged with DNA for qPCR detection. Streptavidin-coated magnetic beads were treated with biotinylated small molecule ligands for 30 minutes at room temperature to generate affinity resins for kinase assays. The liganded beads were blocked with excess biotin and washed with blocking buffer (SeaBlock (Pierce), 1% BSA, 0.05% Tween 20, 1 mM DTT) to remove unbound ligand and to reduce non-specific binding. Binding reactions were assembled by combining kinases, liganded affinity beads, and test compounds in 1× binding buffer (20% SeaBlock, 0.17×PBS, 0.05% Tween 20, 6 mM DTT). Test compounds were prepared as 111× stocks in 100% DMSO. Kd values were determined using an 11-point 3-fold compound dilution series with three DMSO control points. All compounds for Kd measurements are distributed by acoustic transfer (non-contact dispensing) in 100% DMSO. The compounds were then diluted directly into the assays such that the final concentration of DMSO was 0.9%. All reactions performed in polypropylene 384-well plate. Each was a final volume of 0.02 mL. The assay plates were incubated at room temperature with shaking for 1 hour and the affinity beads were washed with wash buffer (lx PBS, 0.05% Tween 20). The beads were then re-suspended in elution buffer (lx PBS, 0.05% Tween 20, 0.5 μM nonbiotinylated affinity ligand) and incubated at room temperature with shaking for 30 minutes. The kinase concentration in the eluates was measured by qPCR.

Assay [2] has as its target T2, CDK1 (Homo sapiens, UniProt P06493).
T2 construct: made in house; host or cells: E. coli BL21-derived host (T7 phage) or HEK-293 ('BEK-293' [sic])
Kind of assay: KdELECT binding assay, CDK1. The note with it: CDK1, Table 9. How it is done:
as §1

Assay [3] concerns the target T3, CDK2 (Homo sapiens, UniProt P24941).
T3 construct: made in house; host or cells: E. coli BL21-derived host (T7 phage) or HEK-293 ('BEK-293' [sic])
The assay can be described thus: KdELECT binding assay, CDK2. The note with it: CDK2, Table 8. How it is done: as §1, with “All reactions performed in polypropylene 384-well plate. Each was a final volume of 0.02 mL. The assay plates were incubated at room temperature with shaking for 1 hour and the affinity beads were washed with wash buffer (lx PBS, 0.05% Tween 20). The beads were then re-suspended in elution buffer (lx PBS, 0.05% Tween 20, 0.5 μM nonbiotinylated affinity ligand) and incubated at room temperature with shaking for 30 minutes.” left out

T2 sequence (P06493 whole entry): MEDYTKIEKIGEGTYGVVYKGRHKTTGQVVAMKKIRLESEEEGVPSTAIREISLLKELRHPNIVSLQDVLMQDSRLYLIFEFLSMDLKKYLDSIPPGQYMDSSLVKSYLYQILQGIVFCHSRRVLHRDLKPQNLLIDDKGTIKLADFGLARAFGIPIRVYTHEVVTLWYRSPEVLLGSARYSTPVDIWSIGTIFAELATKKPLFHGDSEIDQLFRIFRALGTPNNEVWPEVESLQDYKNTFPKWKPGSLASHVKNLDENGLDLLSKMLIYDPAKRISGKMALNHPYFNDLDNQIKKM
T1 sequence (P50750 whole entry): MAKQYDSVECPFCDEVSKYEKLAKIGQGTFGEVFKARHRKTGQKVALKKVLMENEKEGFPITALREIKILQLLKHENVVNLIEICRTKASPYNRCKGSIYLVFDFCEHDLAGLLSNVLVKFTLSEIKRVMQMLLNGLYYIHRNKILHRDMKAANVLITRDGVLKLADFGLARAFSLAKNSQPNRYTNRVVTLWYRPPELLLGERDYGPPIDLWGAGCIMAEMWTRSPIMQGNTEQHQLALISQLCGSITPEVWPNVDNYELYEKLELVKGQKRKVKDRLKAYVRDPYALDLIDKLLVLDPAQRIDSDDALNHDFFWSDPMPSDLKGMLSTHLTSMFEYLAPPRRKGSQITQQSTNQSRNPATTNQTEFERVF

Consider `CCc1cnn2c(NCc3ccc(OCCN(C)c4ncc(C(=O)N[C@H]5C(C)(C)[C@H](Oc6ccc(C#N)c(Cl)c6)C5(C)C)cn4)nc3)cc(N3CCCC[C@H]3CCO)nc12` [Compound I-1], for which the pKd in assay [1] is 6.30 to 7.30.

In the case of `CCc1cnn2c(NCc3ccc(OCCOCCOCCOCCOCCN(C)c4ncc(C(=O)N[C@H]5C(C)(C)[C@H](Oc6ccc(C#N)c(Cl)c6)C5(C)C)cn4)nc3)cc(N3CCCC[C@H]3CCO)nc12` [Compound I-3], in assay [1], the pKd was 6.30 to 7.30.

In assay [1], `CCc1cnn2c(NCc3ccc(OCCOC4CCN(c5ncc(C(=O)N[C@H]6C(C)(C)[C@H](Oc7ccc(C#N)c(Cl)c7)C6(C)C)cn5)CC4)nc3)cc(N3CCCC[C@H]3CCO)nc12` [Compound I-7, N-((1r,3r)-3-(3-chloro-4-cyanophenoxy)-2,2,4,4-tetramethylcyclobutyl)-2-(4-(2-((5-(((3-ethyl-5-((S)-2-(2-hydroxyethyl)piperidin-1-yl)pyrazolo[1,5-a]pyrimidin-7-yl)amino)methyl)pyridin-2-yl)oxy)ethoxy)piperidin-1-yl)pyrimidine-5-carboxamide] gave a pKd of 5.60 to 6.30.

Take `CCc1cnn2c(NCc3ccc(OCCOCCOCCOC4CCN(c5ncc(C(=O)N[C@H]6C(C)(C)[C@H](Oc7ccc(C#N)c(Cl)c7)C6(C)C)cn5)CC4)nc3)cc(N3CCCC[C@H]3CCO)nc12` [Compound I-8]: the pKd in assay [2] was under 5.60; in assay [1], 6.30 to 7.30; in assay [3], under 5.60.

In the case of `CCc1cnn2c(NCc3ccc(OCCOCCOCCOCCOCCOC4CCN(c5ncc(C(=O)N[C@H]6C(C)(C)[C@H](Oc7ccc(C#N)c(Cl)c7)C6(C)C)cn5)CC4)nc3)cc(N3CCCC[C@H]3CCO)nc12` [Compound I-9], the pKd in assay [1] is 5.60 to 6.30.

Consider `CC1(C)[C@H](NC(=O)c2cnc(N3CCC(OCCNS(=O)(=O)c4ccc(Nc5ncc(Br)c(Nc6cccc(F)c6C(N)=O)n5)cc4)CC3)nc2)C(C)(C)[C@H]1Oc1ccc(C#N)c(Cl)c1` [Compound I-13, 2-(4-(2-((4-((5-bromo-4-((2-carbamoyl-3-fluorophenyl)amino)pyrimidin-2-yl)amino)phenyl)sulfonamido)ethoxy)piperidin-1-yl)-N-((1 r,3r)-3-(3-chloro-4-cyanophenoxy)-2,2,4,4-tetramethylcyclobutyl)pyrimidine-5-carboxamide], for which the pKd in assay [1] is under 5.60.

The compound `CCc1cnn2c(NCc3ccc(OCCCCOCCOC4CCN(c5ncc(C(=O)N[C@H]6C(C)(C)[C@H](Oc7ccc(C#N)c(Cl)c7)C6(C)C)cn5)CC4)nc3)cc(N3CCCC[C@H]3CCO)nc12` [Compound I-34] had a pKd in assay [1] of 5.60 to 6.30.

For the compound `CCc1cnn2c(NCc3ccc(OCCN4CCN(CC5CCN(c6ncc(C(=O)N[C@H]7C(C)(C)[C@H](Oc8ccc(C#N)c(Cl)c8)C7(C)C)cn6)CC5)CC4)nc3)cc(N3CCCC[C@H]3CCO)nc12` [Compound I-41], the pKd in assay [2] is under 5.60; in assay [1] it was 6.30 to 7.30.

Take `CCc1cnn2c(NCc3ccc(COCCN4CCN(CC5CCN(c6ncc(C(=O)N[C@H]7C(C)(C)[C@H](Oc8ccc(C#N)c(Cl)c8)C7(C)C)cn6)CC5)CC4)nc3)cc(N3CCCC[C@H]3CCO)nc12` [Compound I-42]: the pKd is under 5.60 in assay [2] and over 7.30 in assay [1].

The compound `CCc1cnn2c(NCc3ccc(OCCOCCOCCOC4CCN(c5ccc(C(=O)N[C@H]6C(C)(C)[C@H](Oc7ccc(C#N)c(Cl)c7)C6(C)C)nn5)CC4)nc3)cc(N3CCCC[C@H]3CCO)nc12` [Compound I-44, N-((1r,3r)-3-(3-chloro-4-cyanophenoxy)-2,2,4,4-tetramethylcyclobutyl)-6-(4-(2-(2-(2-((5-(((3-ethyl-5-((S)-2-(2-hydroxyethyl)piperidin-1-yl)pyrazolo[1,5-a]pyrimidin-7-yl)amino)methyl)pyridin-2-yl)oxy)ethoxy)ethoxy)ethoxy)piperidin-1-yl)pyridazine-3-carboxamide] had a pKd in assay [1] of 6.30 to 7.30.

In assay [1], `CCc1cnn2c(NCc3ccc(OCCOCC4CCN(CC5CCN(c6ncc(C(=O)N[C@H]7C(C)(C)[C@H](Oc8ccc(C#N)c(Cl)c8)C7(C)C)cn6)CC5)CC4)nc3)cc(N3CCCC[C@H]3CCO)nc12` [Compound I-45] had a pKd of over 7.30.

`CCc1cnn2c(NCc3ccc(OC4CCN(CC5CCN(c6ncc(C(=O)N[C@H]7C(C)(C)[C@H](Oc8ccc(C#N)c(Cl)c8)C7(C)C)cn6)CC5)CC4)nc3)cc(N3CCCC[C@H]3CCO)nc12` [Compound I-46]: the negative logarithm of the Kd (pKd) in assay [1] was over 7.30.

Consider `CCc1cnn2c(NCc3ccc(OCCN4CCN(CC5CCN(c6ncc(C(=O)N[C@H]7C(C)(C)[C@H](Oc8ccc(C#N)c(Cl)c8)C7(C)C)cn6)CC5)CC4)nc3)cc(-c3ccccc3)nc12` [Compound I-47, N-((1r,3r)-3-(3-chloro-4-cyanophenoxy)-2,2,4,4-tetramethylcyclobutyl)-2-(4-((4-(2-((5-(((3-ethyl-5-phenylpyrazolo[1,5-a]pyrimidin-7-yl)amino)methyl)pyridin-2-yl)oxy)ethyl)piperazin-1-yl)methyl)piperidin-1-yl)pyrimidine-5-carboxamide], for which the pKd in assay [1] is under 5.60.

`CCc1cnn2c(NCc3ccc(OCC4CCN(CC5CCN(c6ncc(C(=O)N[C@H]7C(C)(C)[C@H](Oc8ccc(C#N)c(Cl)c8)C7(C)C)cn6)CC5)CC4)nc3)cc(N3CCCC[C@H]3CCO)nc12` [Compound I-51]: the values for the pKd in assay [2] and in assay [1] were under 5.60 and 6.30 to 7.30, respectively.

Compound `CC(C)n1cc(-c2ccnc3[nH]c(C4CCN(CCN5CCN(CC6CCN(c7ncc(C(=O)NC8C(C)(C)C(Oc9ccc(C#N)c(Cl)c9)C8(C)C)cn7)CC6)CC5)CC4)cc23)ccc1=O` (stereo not drawn) [Compound I-74, N-[3-(3-chloro-4-cyano-phenoxy)-2,2,4,4-tetramethyl-cyclobutyl]-2-[4-[[4-[2-[4-[4-(1-isopropyl-6-oxo-3-pyridyl)-1H-pyrrolo [2,3-b]pyridin-2-yl]-1-piperidyl]ethyl]piperazin-1-yl]methyl]-1-piperidyl]pyrimidine-5-carboxamide] showed a pKd in assay [1] of over 7.30.

Turning to `CC1(C)[C@H](NC(=O)c2cnc(N3CCC(CN4CCN(CCN5C/C=C/CCOc6cccc(c6)-c6ccnc(n6)Nc6cccc(c6)C5)CC4)CC3)nc2)C(C)(C)[C@H]1Oc1ccc(C#N)c(Cl)c1` [Compound I-94], the pKd in assay [1] is 5.60 to 6.30.

As to `Cc1ncc(-c2nc(Nc3ccc(C(=O)N4CC[C@H](N(C)CCOC5CCN(c6ncc(C(=O)N[C@H]7C(C)(C)[C@H](Oc8ccc(C#N)c(Cl)c8)C7(C)C)cn6)CC5)C4)cc3)ncc2F)n1C(C)C` [Compound I-95, N-[3-(3-chloro-4-cyano-phenoxy)-2,2,4,4-tetramethyl-cyclobutyl]-2-[4-[2-[[(3S)-1-[4-[[5-fluoro-4-(3-isopropyl-2-methyl-imidazol-4-yl)pyrimidin-2-yl]amino]benzoyl]pyrrolidin-3-yl]-methyl-amino]ethoxy]-1-piperidyl]pyrimidine-5-carboxamide], in assay [1], the negative logarithm of the Kd (pKd) was 6.30 to 7.30.

With `Cc1ncc(-c2nc(Nc3ccc(C(=O)N4CC[C@H](N(C)CCOCCOCCOC5CCN(c6ncc(C(=O)N[C@H]7C(C)(C)[C@H](Oc8ccc(C#N)c(Cl)c8)C7(C)C)cn6)CC5)C4)cc3)ncc2F)n1C(C)C` [Compound I-96], in assay [1], the pKd was 6.30 to 7.30.

For the compound `Cc1ncc(-c2nc(Nc3ccc(C(=O)N4CC[C@H](N(C)CCOCCOCCOCCOCCOC5CCN(c6ncc(C(=O)N[C@H]7C(C)(C)[C@H](Oc8ccc(C#N)c(Cl)c8)C7(C)C)cn6)CC5)C4)cc3)ncc2F)n1C(C)C` [Compound I-97], the pKd in assay [1] was 6.30 to 7.30.
